Earlier results as cited in paper PMC10650486, “Fluoroquinolone-Based Organic Salts (GUMBOS) with Antibacterial Potential” (International Journal of Molecular Sciences, 2023).

What was measured:
E. coli = tested on: E. coli; set-up: method as in earlier work; conditions: cited from earlier work
S. aureus [1] = conditions: cited from earlier work
[2] = cited from earlier work
S. aureus [3] = tested on: S. aureus; set-up: method as in earlier work; conditions: cited from earlier work

## COc1c(N2C[C@@H]3CCCN[C@@H]3C2)c(F)cc2c(=O)c(C(=O)O)cn(C3CC3)c12 [[Mox], moxifloxacin]
E. coli
  epidemiologic cutoff value (ECOFF): 0.25 mg·L^−1
S. aureus [1]
  MIC: 0.032 to 2 mg/L
[2]
  logKO/W: −0.28
S. aureus [3]
  epidemiologic cutoff value (ECOFF): 0.25 mg·L^−1
